Assay results published in paper PMC5464637, “Identification of key amino acid residues in the hTGR5–nomilin interaction and construction of its binding model” (PLoS ONE, 2017).
Where a chain is given by its changes, count along the chain named.

Assays:
hTGR5-WT = biological target: T1, hTGR5-WT (Homo sapiens, UniProt Q8TDU6); experiment: CRE-luciferase reporter assay in HEK293 cells transfected with hTGR5-WT; assay type: cell-based; conditions: for agonist activity (CRE-luciferase response): hTGR5-WT, 100 μM, 5 h, HEK293
T1 construct: expressed in transfected cells; host or cells: HEK293
T1 sequence (Q8TDU6 1-330): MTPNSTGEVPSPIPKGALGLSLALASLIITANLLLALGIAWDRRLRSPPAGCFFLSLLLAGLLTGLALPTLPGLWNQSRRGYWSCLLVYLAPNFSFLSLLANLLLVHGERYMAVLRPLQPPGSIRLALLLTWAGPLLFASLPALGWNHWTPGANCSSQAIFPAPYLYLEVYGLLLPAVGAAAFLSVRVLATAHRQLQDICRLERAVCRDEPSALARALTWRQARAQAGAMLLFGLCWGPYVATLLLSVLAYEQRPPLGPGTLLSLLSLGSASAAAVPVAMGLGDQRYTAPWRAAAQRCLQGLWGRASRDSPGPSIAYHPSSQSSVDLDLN
Method: (§1) HEK293 cells were plated in 12-well plates at a density of 1.0 × 10^5 cells/well. Twenty hours later, the cells were transfected with pCRE-Luc, p3×FLAG-CMV-TGR5, and pEF-β-galactosidase (100 ng/well each) using the calcium phosphate method. After 4 h of incubation, the medium was replaced with DMEM, which contained 10% dextran charcoal-stripped FBS. Twenty-four hours after transfection, the cells were treated with the previously mentioned compounds and control vehicle (DMSO). After 5 h, the cells were then incubated with lysis buffer (25 mM Tris-phosphate [pH 7.8], 2 mM dithiothreitol [DTT], 2 mM trans-1,2-Diaminocyclohexane-N,N,N, N′-tetraacetic acid [CDTA], 10% glycerol, and 1% Triton X-100) on ice, and the luciferase and β-galactosidase activity were measured. The luciferase activity values were divided by those of β-galactosidase to obtain normalized luciferase values.

mTGR5-WT = biological target: T2, mTGR5-WT (Mus musculus, UniProt Q80SS6); experiment: CRE-luciferase reporter assay in HEK293 cells transfected with mTGR5-WT; assay type: cell-based; conditions: for agonist activity (CRE-luciferase response): 100 μM, 5 h, HEK293; for EC50: CRE-luciferase dose-response, HEK293, n = 3
T2 construct: expressed in transfected cells; host or cells: HEK293
T2 sequence (Q80SS6 1-329): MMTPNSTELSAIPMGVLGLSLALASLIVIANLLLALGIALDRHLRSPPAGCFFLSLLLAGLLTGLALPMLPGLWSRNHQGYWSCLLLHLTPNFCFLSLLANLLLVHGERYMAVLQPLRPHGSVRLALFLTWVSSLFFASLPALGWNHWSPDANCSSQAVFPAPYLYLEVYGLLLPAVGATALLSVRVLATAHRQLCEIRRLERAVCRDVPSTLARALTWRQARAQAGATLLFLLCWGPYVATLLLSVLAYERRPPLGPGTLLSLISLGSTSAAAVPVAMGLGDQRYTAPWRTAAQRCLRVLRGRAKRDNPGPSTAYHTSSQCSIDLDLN
Method: as §1

hTGR5-Q77A/R80A/Y89A = conditions: 100 μM, 5 h, HEK293
Method: as §1
(PDF) Click here for additional data file.

mTGR5-R76Q/Q79R/H88Y = biological target: T3, mTGR5-R76Q/Q79R/H88Y (Mus musculus, UniProt Q80SS6, H88Y/Q79R/R76Q); experiment: CRE-luciferase reporter assay in HEK293 cells transfected with mouse-to-human triple mutant TGR5; conditions: for agonist activity (CRE-luciferase response): mTGR5-R76Q/Q79R/H88Y, HEK293
T3 sequence (Q80SS6 1-329 R76Q/Q79R/H88Y): T2 sequence (Q80SS6 1-329) with R76Q, Q79R, H88Y

hTGR5-Q77R/R80Q/Y89H = biological target: T4, hTGR5-Q77R/R80Q/Y89H (Homo sapiens, UniProt Q8TDU6, Q77R/R80Q/Y89H); experiment: CRE-luciferase reporter assay in HEK293 cells transfected with human-to-mouse triple mutant TGR5; conditions: for EC50: CRE-luciferase dose-response, HEK293, n = 3; for agonist activity (CRE-luciferase response): HEK293
T4 sequence (Q8TDU6 1-330 Q77R/R80Q/Y89H): T1 sequence (Q8TDU6 1-330) with Q77R, R80Q, Y89H

Compound	agonist activity (CRE-luciferase response) (hTGR5-WT)	agonist activity (CRE-luciferase response) (mTGR5-WT)	EC50 (mTGR5-WT)	agonist activity (CRE-luciferase response) (hTGR5-Q77A/R80A/Y89A)	EC50 (hTGR5-WT) [µM]	EC50 (mTGR5-R76Q/Q79R/H88Y) [µM]	agonist activity (CRE-luciferase response) (mTGR5-R76Q/Q79R/H88Y)	EC50 (hTGR5-Q77R/R80Q/Y89H)	agonist activity (CRE-luciferase response) (hTGR5-Q77R/R80Q/Y89H)
CC1(C)O[C@H]2CC(=O)OC[C@]23[C@H]2CC[C@@]4(C)[C@H](c5ccoc5)OC(=O)[C@H]5O[C@]54[C@]2(C)C(=O)C[C@@H]13 [limonin]	very weak hTGR5 agonist activity								
CC(=O)O[C@H]1CC(=O)OC(C)(C)[C@@H]2CC(=O)[C@]3(C)[C@H](CC[C@@]4(C)[C@H](c5ccoc5)OC(=O)[C@H]5O[C@]543)[C@@]12C [nomilin]		considerably weaker agonist activity for mTGR5 than it does for hTGR5	undetectable	very weak nomilin response relative to WT-hTGR5	23.6	46.2	strong nomilin response equal to that of hTGR5-WT	undetectable	very weak nomilin response identical to that of mTGR5
CC1(C)OC(=O)C=C[C@]2(C)[C@H]3CC[C@@]4(C)[C@H](c5ccoc5)OC(=O)[C@H]5O[C@]54[C@]3(C)C(=O)C[C@@H]12 [obacunone]	stronger agonist activity for hTGR5 than it does for mTGR5	very weak obacunone response	undetectable		147	165	equally intense obacunone responses	undetectable	very weak obacunone response
